Measurements reported in the NIST ThermoML archive (doi:10.1016/j.tca.2013.03.008).
Values joined by “and” are separate entries in the source; they are usually repeats but may differ in a detail not shown here. Equal values may be shown once. Numbers after ± are expanded uncertainties.

Columns and labels:
[1] = 101 kPa, Liquid; for viscosity: Capillary tube (Ostwald / Ubbelohde) method; for mass density: Vibrating tube method
[2] = xn = mol fraction of the nth substance listed; conditions: 101 kPa, Liquid; for viscosity: Capillary tube (Ostwald / Ubbelohde) method; for mass density: Vibrating tube method

CCC(C)O (stereo unspecified) [butan-2-ol]
[1]
Conditions	mass density [kg/m3]	viscosity [mPa·s]
298.15 K	802.62 ± 0.31	2.998 ± 0.031
308.15 K	794.13 ± 0.31	2.17 ± 0.025
318.15 K	785.22 ± 0.31	1.476 ± 0.019

CCC(C)O (stereo unspecified) [butan-2-ol] + CCC(=O)CC
[2], x2 = 0
Conditions	mass density [kg/m3]	viscosity [mPa·s]
298.15 K	802.62 ± 0.31	2.998 ± 0.031
308.15 K	794.13 ± 0.31	2.17 ± 0.025
318.15 K	785.22 ± 0.31	1.476 ± 0.019

CCC(C)O (stereo unspecified) [butan-2-ol] + CCOC(=O)CCl
[2], x1 = 1
Conditions	mass density [kg/m3]	viscosity [mPa·s]
298.15 K	802.62 ± 0.31	2.998 ± 0.031
308.15 K	794.13 ± 0.31	2.17 ± 0.025
318.15 K	785.22 ± 0.31	1.476 ± 0.019

CCOC(=O)CCl [ethyl chloroethanoate]
[1]
Conditions	mass density [kg/m3]	viscosity
298.15 K	1144.11 ± 0.45	1.095 ± 0.011 mPa·s
308.15 K	1131.46 ± 0.44	0.934 ± 0.009 mPa·s and 0.939 ± 0.009 mPa·s
318.15 K	1118.74 ± 0.42	0.816 ± 0.008 mPa·s and 0.815 ± 0.008 mPa·s

CCC(=O)CC [pentan-3-one]
[1]
Conditions	mass density [kg/m3]	viscosity [mPa·s]
298.15 K	809.38 ± 0.31	0.442 ± 0.005
308.15 K	799.55 ± 0.31	0.398 ± 0.004
318.15 K	789.63 ± 0.31	0.362 ± 0.004

CCC(=O)CC [pentan-3-one] + CCOC(=O)CCl
[2], x1 = 1
Conditions	mass density [kg/m3]	viscosity [mPa·s]
298.15 K	809.38 ± 0.31	0.442 ± 0.005
308.15 K	799.55 ± 0.31	0.398 ± 0.004
318.15 K	789.63 ± 0.31	0.362 ± 0.004
